Source: patent US20100152429A1, “SODIUM SALT OF DISACCHARIDE COMPOUND, METHOD FOR PRODUCING THE SAME, AND USE OF THE SAME” (Eisai R&D Management Co., Ltd., priority 2006, published 2010)

Test: Storage Safety Test: impurity generation on storage at 25° C., HPLC;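 note: HPLC peak area percentages of three decomposition products, each sample run alongside a methanol-only blank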
Format: physicochemical
Conditions: HPLC percentage of area
[1] = 0 days, stored in glass bottles at 25° C.
[2] = 1.0 days, stored at 25° C., listed as 3.67 Na salt
[3] = 1.9 days, stored at 25° C., listed as 3.67 Na salt
[4] = 4.5 days, stored at 25° C., listed as 3.67 Na salt
[5] = 1.0 days, stored at 25° C., listed as 3.93 Na salt
[6] = 1.9 days, stored at 25° C., listed as 3.93 Na salt
[7] = 4.5 days, stored at 25° C., listed as 3.93 Na salt

Description: When HPLC analysis was performed under the conditions shown in Table 1 for each solution and blank solution (methanol only), three types of decomposition product were identified, and the generation ratio (converted to a monthly basis) was calculated for each of the three decomposition products (impurities A, B and C) as a percentage of area.

**Q.** With `CCCCCCC=CCCCCCCCCCC(=O)NC1C(OCC2OC(OP(=O)([O-])[O-])C(NC(=O)CC(=O)CCCCCCCCCCC)C(OCCCCCCCCCC)C2O)OC(COC)C(OP(=O)([O-])[O-])C1OCCC(CCCCCCC)OC.[Na+].[Na+].[Na+].[Na+]` (stereo not drawn) [Comparative Example 1, reference compound] as the compound, how does the “Impurity A” value [1] read?
**A.** 0.00

**Q.** What about the “Impurity B” value [1] of the same compound?
**A.** 0.18

**Q.** And the “Impurity C” value [1]?
**A.** 0.00

**Q.** What about the “Impurity A” value (1.0 days, stored at 25° C.) of the same compound?
**A.** 0.06

**Q.** What about the “Impurity B” value (1.0 days, stored at 25° C.) of the same compound?
**A.** 0.36

**Q.** What about the “Impurity C” value (1.0 days, stored at 25° C.) of the same compound?
**A.** 0.00

**Q.** And the “Impurity A” value (1.9 days, stored at 25° C.)?
**A.** 0.08

**Q.** What about the “Impurity B” value (1.9 days, stored at 25° C.) of the same compound?
**A.** 0.48

**Q.** What about the “Impurity C” value (1.9 days, stored at 25° C.) of the same compound?
**A.** 0.00

**Q.** What about the “Impurity A” value (4.5 days, stored at 25° C.) of the same compound?
**A.** 0.12

**Q.** And the “Impurity B” value (4.5 days, stored at 25° C.)?
**A.** 0.67

**Q.** And the “Impurity C” value (4.5 days, stored at 25° C.)?
**A.** 0.00

**Q.** What about the “Impurity C” value (8.8 days, stored at 25° C.) of the same compound?
**A.** 0.00

**Q.** And the “Impurity C” value (29.5 days, stored at 25° C.)?
**A.** 0.03

**Q.** Which “Impurity A” value [1] does the source give for `CCCCCC/C=C\CCCCCCCCCC(=O)N[C@H]1[C@H](OC[C@H]2O[C@H](OP(=O)(O)O)[C@H](NC(=O)CC(=O)CCCCCCCCCCC)[C@@H](OCCCCCCCCCC)[C@@H]2O)O[C@H](COC)[C@@H](OP(=O)(O)O)[C@@H]1OCC[C@@H](CCCCCCC)OC` [Example 2] here?
**A.** 0.00

**Q.** And the “Impurity B” value [1]?
**A.** 0.00

**Q.** What about the “Impurity C” value [1] of the same compound?
**A.** 0.00

**Q.** And the “Impurity A” value (18 days, stored at 25° C.)?
**A.** 0.00

**Q.** And the “Impurity B” value (18 days, stored at 25° C.)?
**A.** 0.00

**Q.** What about the “Impurity C” value (18 days, stored at 25° C.) of the same compound?
**A.** 0.17

**Q.** For `CCCCCC/C=C\CCCCCCCCCC(=O)N[C@H]1[C@H](OC[C@H]2O[C@H](OP(=O)([O-])[O-])[C@H](NC(=O)CC(=O)CCCCCCCCCCC)[C@@H](OCCCCCCCCCC)[C@@H]2O)O[C@H](COC)[C@@H](OP(=O)([O-])[O-])[C@@H]1OCC[C@@H](CCCCCCC)OC.[Na+].[Na+].[Na+].[Na+]` [Example 3], which “Impurity A” value [1] is on record?
**A.** 0.00

**Q.** And the “Impurity C” value [1]?
**A.** 0.00

**Q.** What about the “Impurity B” value (0 days, stored in glass bottles at 25° C., listed as 3.67 Na salt) of the same compound?
**A.** 0.08

**Q.** And the “Impurity C” value (1.0 days, stored at 25° C.)?
**A.** 0.00

**Q.** What about the “Impurity A” value [2] of the same compound?
**A.** 0.00

**Q.** What about the “Impurity B” value [2] of the same compound?
**A.** 0.12

**Q.** What about the “Impurity C” value (1.9 days, stored at 25° C.) of the same compound?
**A.** 0.00

**Q.** And the “Impurity A” value [3]?
**A.** 0.01

**Q.** And the “Impurity B” value [3]?
**A.** 0.09

**Q.** What about the “Impurity C” value (4.5 days, stored at 25° C.) of the same compound?
**A.** 0.01

**Q.** What about the “Impurity A” value [4] of the same compound?
**A.** 0.01

**Q.** What about the “Impurity B” value [4] of the same compound?
**A.** 0.13

**Q.** What about the “Impurity C” value (8.8 days, stored at 25° C.) of the same compound?
**A.** 0.01

**Q.** And the “Impurity C” value (29.5 days, stored at 25° C., listed as 3.67 Na salt)?
**A.** 0.07

**Q.** What does the source list for `CCCCCC/C=C\CCCCCCCCCC(=O)N[C@H]1[C@H](OC[C@H]2O[C@H](OP(=O)([O-])[O-])[C@H](NC(=O)CC(=O)CCCCCCCCCCC)[C@@H](OCCCCCCCCCC)[C@@H]2O)O[C@H](COC)[C@@H](OP(=O)([O-])[O-])[C@@H]1OCC[C@@H](CCCCCCC)OC.[Na+].[Na+].[Na+].[Na+]` [Example 4]?
**A.** Impurity B (0 days, stored in glass bottles at 25° C., listed as 3.93 Na salt): 0.14; Impurity A [5]: 0.03; Impurity B [5]: 0.26; Impurity A [6]: 0.04; Impurity B [6]: 0.29; Impurity A [7]: 0.06; Impurity B [7]: 0.38; Impurity C (29.5 days, stored at 25° C., listed as 3.93 Na salt): 0.06
